Data taken from US11602553B2, “Composition of lactobacillus and berry extract” (UNIVERSITY OF FLORIDA RESEARCH FOUNDATION, INCORPORATED, priority 2018, dated 2023).

Experiment: Radical scavenging activity (DPPH method)
Conditions: positive control
Description: Residual phenolic in growth media ([…]) were recovered as follows: samples of the growth media were taken at different time points along L. johnsonii N6.2 growth kinetics. The supernatant was recovered by centrifugation (4000 g for 30 min at 4° C.) and saved as aliquots at -20° C. until processing. Soluble phenolic compounds were recovered by solid-phase extraction using […] column (ThermoScientific, WI, USA) as described by Correa-Betanz et al. (2015). The total scavenging activity of the culture media was assessed by using the DPPH method described by Dong et al. (2017). The samples ([…] or its polyphenol enriched fractions) were diluted (1⁄2 and 1/10) in methanol. […] The quenching ability of L-ascorbic acid was used as a positive control. The absorbance was measured at 515 nm using a Sinergy HT microplate reader (Biotek, Winooski, Vt., USA). The scavenging activity (SA) was estimated by the following formula: % SA=[(Abscontrol-blank-Abssample-blank)/Abscontrol-blank]×100. Total radical scavenging activity (% SA) is expressed in percent of quenching activity per μg of gallic acid equivalents.

O=C1O[C@H]([C@@H](O)CO)C(O)=C1O [L-ascorbic acid]
DPPH scavenging activity (% SA): 20.2±0.85 % SA
